US12629359B2 (UNIVERSITA' DEGLI STUDI DI BRESCIA, priority 2020, dated 2026)
Entries after “also recorded” stand apart in the source; their conditions may differ.

What was measured:
[1] = test system: primary mesencephalic cultures; assay: MTT cell viability assay; format: cell-based, mouse; conditions: 24 h
Description: The cytotoxic effect of compounds treatment was measured by evaluating mitochondrial dehydrogenase activity using the MTT salt assay.
Neuronal differentiated SK—N—SH cells were thus exposed to different concentrations of I-threo, IV-threo, I-erythro, V-threo and V-erythro as described above, and then used for the MTT cell viability assay.
Animals: C57BL/6J wt mice (C57BL/6J) (Charles River, Wilmington, MA) used in this study, were bred in our animal house facility at the Department of Molecular and Translational Medicine of University of Brescia. Animals were maintained under a 12h light-dark cycle at a room temperature (rt) of 22° C. and had ad libitum food and water. All experiments were made in accordance to Directive 2010/63/EU of the European Parliament and of the Council of 22 Sep. 2010 on the protection of animals used. All experimental and surgical procedures conformed to the National Research Guide for the Care and Use of Laboratory Animals were approved by the Animal Research Committees of the University of Brescia (Protocol Permit 719/2015-PR). All achievements were made to minimize animal suffering and to reduce the number of animals used. Primary neuronal cultures from mesencephalic tissues were dissected from C57BL/6J 13-days embryos. Briefly, after mechanical dissociation the single cells were re-suspended in Neurobasal medium containing 100 μg/ml penicillin, 100 μg/ml streptomycin, 0.5 mM glutamine and 1% B27 supplement. Cells were then centrifuged and cell count and viability assays were performed using the Trypan Blue exclusion test. Cells were seeded onto poly-D-lysine-coated glass coverslides in 24-well plates (14 μg/mL) for immunocytochemistry (100000 cells/well). Cells were maintained at 37° C. under a humidified atmosphere of 5% CO2 and […] for at least 10 days in vitro (DIV 10) prior to their use to allow their maturation. At DIV 10, cells were treated with increasing concentrations (0.01 μM-0.1 μM-1 μM-[…]) of the different compounds (I-threo, IV-threo, I-erythro, V-threo, VI-threo). Twenty-four h after the treatments, culture medium was removed and 300 μL of MTT 0.5 mg/mL diluted in culture medium was added to each well. After 90′ incubation at 37° C., the medium was removed and 250 μL aliquots of DMSO were added to each well to solubilize the formazan crystals. Absorbance was measured at 570 nm using a microplate reader. Cell viability was expressed as absorbance value.

[2] = target: T1, alpha-synuclein/Synapsin III interaction (Homo sapiens, UniProt O14994+P37840); assay: Acceptor photobleaching FRET of alpha-synuclein/Synapsin III interaction in neuronal-differentiated SK-N-SH cells; format: cell-based; conditions: 10 μM, 15 min; for stimulation of alpha-synuclein/Synapsin III interaction (FRET efficiency), in words: vs basal; for % FRET efficiency change vs MPH-treated cells: vs MPH 10 μM
T1 construct: expressed in transfected cells; host or cells: neuronal-differentiated (retinoic acid) human SK-N-SH neuroblastoma cells, transient transfection with Lipofectamine 3000
T1 sequence (O14994 whole entry, one chain of several): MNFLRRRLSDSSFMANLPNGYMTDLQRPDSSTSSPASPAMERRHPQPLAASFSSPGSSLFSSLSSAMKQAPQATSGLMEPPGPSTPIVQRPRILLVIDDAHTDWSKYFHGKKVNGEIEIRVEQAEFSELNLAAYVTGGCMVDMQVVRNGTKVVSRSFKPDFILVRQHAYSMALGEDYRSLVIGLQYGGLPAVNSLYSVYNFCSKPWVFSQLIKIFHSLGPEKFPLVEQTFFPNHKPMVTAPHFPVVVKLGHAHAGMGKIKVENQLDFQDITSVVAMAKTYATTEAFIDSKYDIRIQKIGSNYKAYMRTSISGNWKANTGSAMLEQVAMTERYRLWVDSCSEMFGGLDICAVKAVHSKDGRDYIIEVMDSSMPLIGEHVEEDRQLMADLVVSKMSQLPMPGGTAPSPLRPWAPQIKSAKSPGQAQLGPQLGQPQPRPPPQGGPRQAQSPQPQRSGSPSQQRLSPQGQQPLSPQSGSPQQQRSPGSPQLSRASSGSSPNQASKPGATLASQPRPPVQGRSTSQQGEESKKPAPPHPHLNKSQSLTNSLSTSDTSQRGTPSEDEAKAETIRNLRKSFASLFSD
Description: The ability of the different compound to stimulate alpha-synuclein/Synapsin III interaction was evaluated by acceptor photobleaching FRET or FLIM in neuronal-like cells. In particular, we used neuronal-differentiated SK—N—SH neuroblastoma cells transiently transfected with red fluorescent protein (RFP)-tagged human wild type alpha-synuclein and green fluorescent protein (GFP)-tagged the human 63 kDa Synapsin III isoform.
Acceptor photobleaching FRET microscopy allows an accurate evaluation of protein-protein interaction through the measurement of FRET efficiency. This parameter is indicative of the increase of donor fluorescence after complete photobleaching of the acceptor fluorescence, within a FRET pair of fluorophores (where the emission wavelength of a donor falls within the excitation wavelength of an acceptor). Since FRET efficiency is detectable only when the two fluorophores are sufficiently close to ensure that their linked proteins are interacting, the molecular proximity of these latter results strictly dependent on this parameter^36,37. […] Human neuroblastoma SK—N—SH cells were grown in complete medium comprising Dulbecco's modified Eagle's medium with 1000 mg glucose/l supplemented with 10% heat-inactivated fetal bovine serum, 100 μg/ml penicillin and 100 μg/ml streptomycin. Cells were maintained at 37° C. under a humidified atmosphere of 5% CO2 and […]. For FRET studies, SK—N—SH cells were seeded onto poli-D-lysine-coated 13 mm glass coverslips in 24-well plates (15000 cells per coverslip) and were maintained in differentiation medium for ten days by daily adding 10 μM retinoic acid to the medium. […] Fixed cells were analyzed by means of a Zeiss confocal laser microscope LSM 880 (Carl Zeiss) with the laser set on A=488-543. After identifying double positive cells three-to-six regions of interest (ROI) were analyzed for 4 series. Two images of basal condition (Pre-bleaching) were acquired before bleaching the RFP acceptor fluorophore with laser 543 set at 65% power. Then, other two images were acquired after the bleaching (Post-bleaching). The FRET efficiency (intended as the GFP recovery after RFP photobleaching) was measured by using Zen black software (Carl Zeiss). The average intensity of the background (outside the cell) was subtracted from the average intensity of the ROI and all the FRET values resulting from the different ROI were used for statistical analysis.
Human neuroblastoma SK—N—SH cells were grown in complete medium comprising Dulbecco's modified Eagle's medium with 1000 mg glucose/l supplemented with 10% heat-inactivated fetal bovine serum, 100 μg/ml penicillin and 100 μg/ml streptomycin. Cells were maintained at 37° C. under a humidified atmosphere of 5% CO2 and […]. For FRET studies, SK—N—SH cells were seeded onto poli-D-lysine-coated 13 mm glass coverslips in 24-well plates (15000 cells per coverslip) and were maintained in differentiation medium for ten days by daily adding 10 μM retinoic acid to the medium. […] Fixed cells were analyzed by means of a Zeiss confocal laser microscope LSM 880 (Carl Zeiss) with the laser set on λ=488-543. After identifying double positive cells three-to-six regions of interest (ROI) were analyzed for 4 series. Two images of basal condition (Pre-bleaching) were acquired before bleaching the RFP acceptor fluorophore with laser 543 set at 65% power. Then, other two images were acquired after the bleaching (Post-bleaching). The FRET efficiency (intended as the GFP recovery after RFP photobleaching) was measured by using Zen black software (Carl Zeiss). The average intensity of the background (outside the cell) was subtracted from the average intensity of the ROI and all the FRET values resulting from the different ROI were used for statistical analysis.

[3] = test system: aged human alpha-synuclein transgenic mouse model of Parkinson's disease; conditions: independent of dopamine transporter inhibition; abolished by Synapsin III gene silencing; cited from earlier work
[4] = test system: advanced Parkinson's disease; conditions: cited from earlier work
[5] = test system: alpha-synuclein aggregation in SK—N—SH cells; assay: Alpha-synuclein aggregation after glucose deprivation in SK-N-SH alpha-synuclein stable clones (immunocytochemistry); format: cell-based, human; conditions: for alpha-synuclein aggregates seen in images after GD: 24 h, vs non-treated (NT) cells, preliminary
Description: Human neuroblastoma SK—N—SH full length (fl) alpha-synuclein stable clones were seeded onto poly-D-lysine-coated glass coverslides in 24-well plates and were grown in complete medium comprising Dulbecco's modified Eagle's medium with 1000 mg glucose/l supplemented with 10% heat-inactivated fetal bovine serum, 100 μg/ml penicillin and 100 μg/ml streptomycin. Cells were maintained at 37° C. under a humidified atmosphere of 5% CO2 and […]. At 80% confluence, cells underwent glucose deprivation (GD) in order to induce alpha-synuclein aggregation (Bellucci, A.; et al. Journal of neurochemistry 2008, 106, 560-577). Briefly, GD was performed through an incubation of the cells with Hank's balanced salt solution supplemented with 2 mM glutamine and 10% heat-inactivated fetal bovine serum, for 1 h at 37° C. […] After 24 h of treatment, cells were fixed by incubating for 15 min in 4% paraformaldehyde with 4% sucrose in 1 M PBS, pH 7.4. The fixed cells were then stored in PBS-containing 0.05% sodium azide. Slides were incubated for 1 h at room temperature in blocking solution [2% w/v bovine serum albumin (BSA) plus 3% v/v normal goat serum in PBS], then overnight at 4° C. with the primary antibody (Syn211 antibody against alpha-synuclein) at the optimal working dilution. On the following day, cells were incubated for 1 h at room temperature with the Cy3-conjugated secondary antibody diluted in 0.1% Triton X-100 PBS plus BSA 1 mg/ml. Finally, cell nuclei were counterstained with Hoechst 33258 dye, and the coverslips were mounted onto glass slides using Vectashield.

[6] = test system: alpha-synuclein aggregation in primary mesencephalic neurons; assay: Alpha-synuclein aggregation in primary mouse midbrain neurons exposed to glucose deprivation; format: cell-based; conditions: I-threo, VI-threo 50 and 100 nM, MPH 100 nM

COC(=O)[C@@H](c1ccc2ccccc2c1)C1CCCCN1.Cl (stereo partly drawn) [IV-threo]
cell viability (MTT) at 100 μM ([1]; 100 μM): the same profile of I-threo; also recorded: significant decrease in cell viability | stimulation of alpha-synuclein/Synapsin III interaction (FRET efficiency), in words [2]: not able to stimulate alpha-synuclein/Synapsin III interaction; also recorded: No significant increase

COC(=O)[C@@H](Cc1ccc(C)cc1)C1CCCCN1.Cl (stereo partly drawn) [IX-threo]
% FRET efficiency change vs MPH-treated cells [2]: +4.6%

COC(=O)C(c1ccccc1)C1CCCCN1 (stereo not shown) [MPH, Methylphenidate, reference compound]
Synapsin III-dependent locomotor activity [3]: over-stimulate a Synapsin III-dependent locomotor activity | freezing of gait [4]: efficiently counteract freezing of gait | alpha-synuclein aggregates seen in images after GD ([5]; 10 μM): a reduction in the formation of alpha-synuclein aggregates | EC50 ([5]; Homo sapiens, SK-N-SH cells, read-out: EC50 in reducing alpha-synuclein aggregation): 37.3 µM

COC(=O)[C@@H](c1ccc(-c2ccccc2)cc1)C1CCCCN1.Cl (stereo partly drawn) [V-threo]
concentration from which markedly toxic (MTT) ([1]; 0.01-100 μM tested): ≥ 100 nM | cytotoxicity (MTT), in words ([1]; low concentrations): cytotoxicity at low concentrations | stimulation of alpha-synuclein/Synapsin III interaction (FRET efficiency), in words [2]: not able to stimulate alpha-synuclein/Synapsin III interaction; also recorded: No significant increase

COC(=O)[C@@H](c1ccc(C)cc1)C1CCCCN1C.Cl (stereo partly drawn) [VI-threo, threo methyl 2-(1-methylpiperidin-2-yl)-2-(p-tolyl)acetate hydrochloride]
alpha-synuclein inclusion formation (total immunofluorescence intensity and particle size) [6]: did not reduce alpha-synuclein aggregation | toxic effects (MTT) at the working concentrations ([1]; concentrations reducing aggregation or stimulating interaction): did not exhibit toxic effects | alpha-synuclein aggregates seen in images after GD ([5]; 10 μM): no aggregates were observed | formation of alpha-synuclein inclusions after GD (immunofluorescence intensity and average particle size) ([5]; 10 μM, 24 h after 1 h glucose deprivation, vs untreated, hydrochloride): significantly reduce the formation of alpha-synuclein inclusions; also recorded: significantly reduce alpha-synuclein aggregation in vitro | % FRET efficiency change vs control untreated cells ([2]; neuronally differentiated SK-N-SH cells): +3.4%

COC(=O)[C@@H](Cc1ccccc1)C1CCCCN1.Cl (stereo partly drawn) [VII-threo, threo methyl 3-phenyl-2-(piperidin-2-yl)propanoate hydrochloride]
% FRET efficiency change vs MPH-treated cells [2]: +4.3%
